pIC50: −log10 of the molar value. Where two headings read alike, the source gives them in different places. Each block holds one compound with its values, some of them ahead of it.
How the values were obtained:
[1] = system: IL-1β production in hTHP-1 cells; assay: hTHP-1 assay containing 10% fetal bovine serum; type: cell-based, human
Experimental: inhibition=100-100×[HCave−Readout/(HCave−LCave)] • 2. Fit the normalized data in a dose-response manner using XLfit, and calculate the compound concentration. Tables B1, B2, and B3 show the biological activity of compounds in hTHP-1 assay containing 2% fetal bovine serum. […] Key: <0.008 μM=“++++++”; ≥0.008 and <0.04 μM=“+++++”; ≥0.04 and <0.2 μM=“++++”; ≥0.2 and <1 μM=“+++”; ≥1 and <5 μM=“++”; ≥5 and <30 μM=“+”.

[2] = system: IL-1β production in PMA-differentiated THP-1 cells; assay: IL-1β production in PMA-differentiated THP-1 cells stimulated with gramicidin (hTHP-1 assay, 2% fetal bovine serum; Procedures 1-3); type: cell-based, human
Summary of the method: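 PMA-primed THP-1 cells (20 ng/ml PMA, 16-18 h) in RPMI with 2% FBS were pre-incubated with compounds for 1 h, from 100 μM downward in 3-fold steps (0.37% DMSO final), then stimulated with 5 μM gramicidin for 2 h. IL-1β in the supernatant was quantified by HTRF.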

[3] = read-out: hTHP-1 IC50 in 10% FBS, hTHP-1 assay containing 10% fetal bovine serum, Table B4
[4] = Homo sapiens, read-out: hTHP-1 IC50 in 10% FBS, hTHP-1 assay containing 10% fetal bovine serum, Table B4
[5] = Homo sapiens, THP-1, hTHP-1 assay containing 2% fetal bovine serum, Table B2, class symbols, read-out: IC50
[6] = hTHP-1 assay containing 2% fetal bovine serum, Table B2, class symbols, read-out: IC50
[7] = Homo sapiens, THP-1, Table B3, hTHP-1 assay containing 2% fetal bovine serum, gramicidin stimulation, IL-1β readout, read-out: hTHP-1 IC50

SMILES: CC(C)(O)c1csc(S(N)(=O)=NC(=O)Nc2c3c(cc4c2CCC4)CCC3)c1F (single isomer, unassigned) [Example 881, (S) or (R)-3-fluoro-N′-((1,2,3,5,6,7-hexahydro-s-indacen-4-yl)carbamoyl)-4-(2-hydroxypropan-2-yl)thiophene-2-sulfonimidamide]
- pIC50 [1, 3]: 4.52 to 5.30

SMILES: CC(C)(O)c1csc(S(N)(=O)=NC(=O)Nc2c3c(cc4c2CC4)CCC3)c1F (single isomer, unassigned) [Example 883, (S) or (R)-3-fluoro-4-(2-hydroxypropan-2-yl)-N′-((2,4,5,6-tetrahvdro-1H-cyclobuta[f]inden-3-yl)carbamoyl)thiophene-2-sulfonimidamide]
- pIC50 [1, 3]: 5.30 to 6.00

SMILES: CC(C)(O)c1csc(S(N)(=O)=NC(=O)Nc2c3c(cc4c2CC4)CCC3)c1F (single isomer, unassigned) [Example 882, (R) or (S)-3-fluoro-4-(2-hydroxypropan-2-yl)-N′-((2,4,5,6-tetrahydro-1H-cyclobuta[f]inden-3-yl)carbamoyl)thiophene-2-sulfonimidamide]
- pIC50 [1, 3]: 7.40 to 8.10

SMILES: CC(C)(O)c1csc(S(N)(=O)=NC(=O)Nc2c3c(cc4c2CCC4)CCC3)c1F (stereo not shown) [Example 878, 3-Fluoro-N′-((1,2,3,5,6,7-hexahydro-s-indacen-4-yl)carbamoyl)-4-(2-hydroxypropan-2-yl)thiophene-2-sulfonimidamide]
- pIC50 [1, 4]: 6.70 to 7.40

SMILES: CC(C)(O)c1nc(CO)c(S(N)(=O)=NC(=O)Nc2c3c(cc4c2CCC4)CCC3)s1 (single isomer, unassigned) [Example 543, (R) or (S)-N′-((1,2,3,5,6,7-hexahydro-s-indacen-4-yl)carbamoyl)-4-(hydroxymethyl)-2-(2-hydroxypropan-2-yl)thiazole-5-sulfonimidamide]
- pIC50 [2, 6]: 7.40 to 8.10

SMILES: CN1CCc2cc(S(N)(=O)=NC(=O)Nc3c4c(cc5c3CCC5)CCC4)sc2C1 (single isomer, unassigned) [Example 559, (S) or (R)-N′-((1,2,3,5,6,7-hexahydro-s-indacen-4-yl)carbamoyl)-6-methyl-4,5,6,7-tetrahydrothieno[2,3-c]pyridine-2-sulfonimidamide]
- pIC50 [2, 6]: 5.30 to 6.00

SMILES: N[S@@](=O)(=NC(=O)Nc1c2c(cc3c1CCC3)CCC2)c1ccc(C2CCN2)cc1 (stereo partly shown) [Compound 802a]
- pIC50 [2, 5]: 6.00 to 6.70

SMILES: NS(=O)(=NC(=O)Nc1c2c(cc3c1CCC3)CCC2)c1ccc(C2CCCC2)nc1 (stereo not shown) [Example 483, 6-Cyclopentyl-N′-((1,2,3,5,6,7-hexahydro-s-indacen-4-yl)carbamoyl)pyridine-3-sulfonimidamide]
- pIC50 [2, 5]: 5.30 to 6.00

SMILES: C[C@H](N[S@](=O)(=NC(=O)Nc1c2c(cc3c1CCC3)CCC2)c1cnc(C(C)(C)O)s1)c1ccccc1 [Compound 887b]
- pIC50 ([2]; Homo sapiens, THP-1, hTHP-1 assay containing 2% fetal bovine serum, Table B2, given as bound, read-out: IC50): < 4.52

SMILES: CN(Cc1ccc(S(N)(=O)=NC(=O)Nc2c3c(cc4c2CCC4)CCC3)cc1)CC(F)(F)F (stereo not shown) [Example 487, N′-((1,2,3,5,6,7-hexahydro-s-indacen-4-yl)carbamoyl)-4-((methyl(2,2,2-trifluoroethyl)amino)methyl) benzenesulfonimidamide]
- pIC50 [2, 5]: 5.30 to 6.00

SMILES: CC(C)(O)c1ccnc(S(N)(=O)=NC(=O)Nc2c3c(c(C#N)c4c2CCC4)CCC3)c1 (stereo not shown) [Example 681, N′-((8-cyano-1,2,3,5,6,7-hexahydro-s-indacen-4-yl)carbamoyl)-4-(2-hydroxypropan-2-yl)pyridine-2-sulfonimidamide]
- pIC50 [2, 5]: 6.00 to 6.70

SMILES: CN(C)CC(C)(C)c1ccc(S(N)(=O)=NC(=O)Nc2c3c(cc4c2CCC4)CCC3)cc1 (stereo not shown) [Compound 902]
- pIC50 [2, 5]: 5.30 to 6.00

SMILES: CC(O)(CO)c1ncc(S(N)(=O)=NC(=O)Nc2c3c(c(C#N)c4c2CCC4)CCC3)s1 (single isomer, unassigned) [Example 636, (S,R) or (R,R)-N′-((8-cyano-1,2,3,5,6,7-hexahydro-s-indacen-4-yl)carbamoyl)-2-(1,2-dihydroxypropan-2-yl)thiazole-5-sulfonimidamide]
- pIC50 [2, 6]: 6.70 to 7.40

SMILES: CN(C)C(c1ccc(S(N)(=O)=NC(=O)Nc2c3c(cc4c2CCC4)CCC3)cc1)C(F)(F)F (single isomer, unassigned) [Example 666, (R,S) or (S,S)-4-(1-(dimethylamino)-2,2,2-trifluoroethyl)-N′-((1,2,3,5,6,7-hexahydro-s-indacen-4-yl)carbamoyl) benzenesulfonimidamide]
- pIC50 ([2]; hTHP-1 assay containing 2% fetal bovine serum, Table B2, given as bound, read-out: IC50): < 4.52

Now from value to compound:

- pIC50 [1, 3]: 6.70 to 7.40
SMILES: CC(C)(O)c1csc(S(N)(=O)=NC(=O)Nc2c3c(cc4c2CCC4)CCC3)c1F (single isomer, unassigned) [Example 880, (R) or (S)-3-fluoro-N′-((1,2,3,5,6,7-hexahydro-s-indacen-4-yl)carbamoyl)-4-(2-hydroxypropan-2-yl)thiophene-2-sulfonimidamide]

- pIC50 [1, 4]: 6.70 to 7.40
SMILES: CC(C)(O)c1csc(S(N)(=O)=NC(=O)Nc2c3c(cc4c2CC4)CCC3)c1F (stereo not shown) [Example 879, 3-Fluoro-4-(2-hydroxypropan-2-yl)-N′-((2,4,5,6-tetrahydro-1H-cyclobuta[f]inden-3-yl)carbamoyl)thiophene-2-sulfonimidamide]

- pIC50 [2, 5]: 6.70 to 7.40
SMILES: CN[C@H]1COc2c(S(N)(=O)=NC(=O)Nc3c4c(cc5c3CCC5)CCC4)cnn2C1 (stereo partly drawn) [Example 445, (6R)-N′-((1,2,3,5,6,7-hexahydro-s-indacen-4-yl)carbamoyl)-6-(methylamino)-6,7-dihydro-5H-pyrazolo[5,1-b][3]oxazine-3-sulfonimidamide]

- pIC50 [2, 6]: 6.00 to 6.70
SMILES: NS(=O)(=NC(=O)Nc1c2c(cc3c1CC3)CCC2)c1cnn2c1OCCC2 (single isomer, unassigned) [Example 546, (R) or (S)-N′-((2,4,5,6-tetrahydro-1H-cyclobuta[f]inden-3-yl)carbamoyl)-6,7-dihydio-5H-pyrazolo[5,1-b][1,3]oxazine-3-suIfonimidamide]

- pIC50 [2, 5]: 5.30 to 6.00
SMILES: CC(C)(O)c1ccc(S(N)(=O)=NC(=O)Nc2cc3c(c4c2CCC4)CCC3)cn1 (stereo not shown) [Example 464, N′-((1,2,3,6,7,8-hexahydro-as-indacen-4-yl)carbamoyl)-6-(2-hydroxypropan-2-yl)pyridine-3-sulfonimidamide]

- pIC50 ([2]; Table B3, hTHP-1 assay containing 2% fetal bovine serum, gramicidin stimulation, IL-1β readout, read-out: hTHP-1 IC50): 6.00 to 6.70
SMILES: NS(=O)(=NC(=O)Nc1c2c(cc3c1CCC3)CCC2)c1ccc([C@@H]2CCCN2)s1 (single isomer, unassigned) [Example 821, (R) or (S) -N′-((1,2,3,5,6,7-hexahydro-s-indacen-4-yl)carbamoyl)-5-((S)-pyrrolidin-2-yl)thiophene-2-sulfonimidamide]

- pIC50 [2, 7]: 7.40 to 8.10
SMILES: CNC(c1ccc(S(N)(=O)=NC(=O)Nc2c3c(cc4c2CC4)CCC3)s1)C1CC1 (stereo not shown) [Example 719, 5-(Cyclopropyl(methylamino)methyl)-N′-((2,4,5,6-tetrahydro-1H-cyclobuta[f]inden-3-yl)carbamoyl)thiophene-2-sulfonimidamide]

- pIC50 [2, 7]: 5.30 to 6.00
SMILES: NS(=O)(=NC(=O)Nc1c2c(cc3c1CCC3)CCC2)c1cnc(C(O)(COCCO)COCCO)s1 (stereo not shown) [Example 751, N′-((1,2,3,5,6,7-hexahydro-s-indacen-4-yl)carbamoyl)-2-(2-hydroxy-1,3-bis(2-hydroxyethoxy)propan-2-yl)thiazole-5-sulfonimidamide]

— patent publication US20230051589A1, “COMPOUNDS AND COMPOSITIONS FOR TREATING CONDITIONS ASSOCIATED WITH NLRP ACTIVITY” (Novartis AG, priority 2018, published 2023)
